In US3991041A, “(Phe3 -Ala)1 -somatostatin” (American Home Products Corporation, priority 1975, dated 1976):

Columns and labels:
Type in all cases: in vivo, albino male rats
growth hormone = assay: Nembutal/arginine rat test, blood radioimmunoassayed for growth hormone
Experimental: (§1) Nembutal (50 mg/kg) was injected intraperitoneally into each rat. Fifteen minutes later a subcutaneous injection of the test compound, somatostatin (200 μg/kg) and physiological saline (control) was administered separately to each of the three groups of rats. Ten minutes later 0.5 milliliters of arginine (300 mg/ml, pH 7.2) was injected into the rats heart. The rats were decapitated five minutes later and their blood was collected in Trasylol -EDTA. Aliquot samples were radioimmunoassayed for growth hormone, glucagon and insulin. The cyclic heptadecapeptide of this invention, with Trp in the L-configuration and in the form of the C-terminal carboxylic acid, selected as representative of the group of compounds disclosed for test purposes, was employed in two additional distinct test procedures at about 5,000 μg/kg dose levels.

glucagon = assay: Nembutal/arginine rat test, blood radioimmunoassayed for glucagon
Experimental: as §1

insulin = assay: Nembutal/arginine rat test, blood radioimmunoassayed for insulin
Experimental: as §1

Structure (SMILES) | GH (growth hormone; dose 1,000 μg/kg subcutaneous, Nembutal 50 mg/kg i.p., arginine intracardiac 10 min after dose, blood 5 min later, control 282±31) [ng/mL] | GH (growth hormone; dose 4,660 μg/kg, third test, control 202±26) [ng/mL] | GH (growth hormone; dose 5,000 μg/kg, second test, control 126±25) [ng/mL] | Glucagon (glucagon; dose 1,000 μg/kg subcutaneous, arginine-stimulated rats, control 17.1±4.8) [pg/mL] | Glucagon (glucagon; dose 4,660 μg/kg, third test, control 3.7±1.3, * Not Significant) [pg/mL] | Glucagon (glucagon; dose 5,000 μg/kg, second test, control 14.0±3) [pg/mL] | Insulin (insulin; dose 1,000 μg/kg subcutaneous, arginine-stimulated rats, control 243±20, * Not Significant) [μU/ml] | Insulin (insulin; dose 4,660 μg/kg, third test, control 176±1, * Not Significant) [μU/ml] | Insulin (insulin; dose 5,000 μg/kg, second test, control 283±37, * Not Significant) [μU/ml] | GH (growth hormone; dose 200 μg/kg subcutaneous, arginine-stimulated rats, control 282±31) [ng/mL] | Glucagon (glucagon; dose 200 μg/kg subcutaneous, arginine-stimulated rats, control 17.1±4.8) [pg/mL] | Insulin (insulin; dose 200 μg/kg subcutaneous, arginine-stimulated rats, control 243±20) [μU/ml]
C[C@H](NC(=O)[C@H](Cc1ccccc1)NC(=O)[C@H](Cc1ccccc1)NC(=O)[C@@H](N)Cc1ccccc1)C(=O)NCC(=O)N[C@H]1CSSC[C@@H](C(=O)O)NC(=O)[C@H](CO)NC(=O)[C@H]([C@@H](C)O)NC(=O)[C@H](Cc2ccccc2)NC(=O)[C@H]([C@@H](C)O)NC(=O)[C@H](CCCCN)NC(=O)[C@H](Cc2c[nH]c3ccccc23)NC(=O)[C@H](Cc2ccccc2)NC(=O)[C@H](Cc2ccccc2)NC(=O)[C@H](CC(N)=O)NC(=O)[C@H](CCCCN)NC1=O [Example 3, L-phenylalanyl-L-phenylalanyl-L-phenylalanyl-L-alanylglycyl-L-cysteinyl-L- lysyl-L-asparaginyl-L-phenylalanyl-L-phenylalanyl-L-tryptophyl-L-lysyl-L-threonyl-L-phenylalanyl-L-threonyl-L-seryl-L-cysteine, (6→17) triacetate] | 124 ± 11 | 97 ± 7 | 27 ± 2 | 0.6 ± 0.2 | 1.1 ± 0.5 | 6.5 ± 2.3 | 204±18 | 165±16 | 202±37 | – | – | –
C[C@H](N)C(=O)NCC(=O)N[C@H]1CSSC[C@@H](C(=O)O)NC(=O)[C@H](CO)NC(=O)[C@H]([C@@H](C)O)NC(=O)[C@H](Cc2ccccc2)NC(=O)[C@H]([C@@H](C)O)NC(=O)[C@H](CCCCN)NC(=O)[C@H](Cc2c[nH]c3ccccc23)NC(=O)[C@H](Cc2ccccc2)NC(=O)[C@H](Cc2ccccc2)NC(=O)[C@H](CC(N)=O)NC(=O)[C@H](CCCCN)NC1=O [SRIF, somatostatin] | – | – | – | – | – | – | – | – | – | 117 ± 6 | 2.0 ± 1.4 | 136±12
